Calls of active or inactive are those of the source. The rule behind the calls is not given here.
Legend:
[1] = Cytotoxicity in human WI-38 cells assessed as reduction in cell viability incubated for 72 hrs by MTT assay; format: toxicity, cell-based
[2] = Cytotoxicity in human WI-38 cells assessed as safe dose incubated for 72 hrs by MTT assay; format: toxicity, cell-based; settings: read-out: EC100
Caco-2 [3] = test: Anticancer activity against human Caco-2 cells incubated for 72 hrs by MTT assay; format: functional, cell-based; settings: Caco-2, 72 h
[4] = Selectivity index, ratio of IC50 for human WI-38 cells to IC50 for human Caco-2 cells
MCF7 [5] = test: Anticancer activity against human MCF7 cells incubated for 72 hrs by MTT assay; format: functional, cell-based; settings: MCF7, 72 h
[6] = Selectivity index, ratio of IC50 for human WI-38 cells to IC50 for human MCF7 cells; format: toxicity; settings: WI-38 cells versus MCF7 cells, read-out: Ratio IC50
HeLa [7] = test: Anticancer activity against human HeLa cells incubated for 72 hrs by MTT assay; format: functional, cell-based
[8] = Selectivity index, ratio of IC50 for human WI-38 cells to IC50 for human HeLa cells; format: toxicity; settings: WI-38 cells versus HeLa cells, read-out: Ratio IC50
HepG2 [9] = test: Anticancer activity against human HepG2 cells incubated for 72 hrs by MTT assay; format: functional, cell-based; settings: HepG2, 72 h
[10] = Selectivity index, ratio of IC50 for human WI-38 cells to IC50 for human HepG2 cells; format: toxicity; settings: WI-38 cells versus HepG2 cells, read-out: Ratio IC50
MCF7 [11] = test: Potency index, ratio of 5-fluorouracil IC50 to test compound IC50 for antiproliferative activity against human MCF7 cells; format: functional
HepG2 [12] = test: Potency index, ratio of 5-fluorouracil IC50 to test compound IC50 for antiproliferative activity against human HepG2 cells; format: functional
Caco-2 [13] = test: Induction of apoptosis in human Caco-2 cells assessed as pro-oxidant effect by measuring free radical generation measured at 0.097 uM after 72 hrs; format: functional, cell-based
MCF7 [14] = test: Induction of apoptosis in human MCF7 cells assessed as pro-oxidant effect by measuring free radical generation measured at 0.097 uM after 72 hrs; format: functional, cell-based
dsDNA [15] = test: Induction of damage in dsDNA (unknown origin) assessed as DNA disruption by measuring fluorescence intensity at 100 uM incubated for 2.5 hrs by EvaGreen based fluorescence plate reader analysis; format: nucleic-acid assay
dsDNA [16] = test: Induction of damage in dsDNA (unknown origin) assessed as DNA disruption by measuring amplitude at 100 uM incubated for 2.5 hrs by EvaGreen based fluorescence plate reader analysis; format: nucleic-acid assay
dsDNA [17] = test: Induction of damage in dsDNA (unknown origin) assessed as DNA disruption by measuring damage constant at 100 uM incubated for 2.5 hrs by EvaGreen based fluorescence plate reader analysis; format: nucleic-acid assay
[18] = target: Tumour suppressor p53/oncoprotein Mdm2 (Homo sapiens, UniProt P04637+Q00987); test: Inhibition of human recombinant MDM2/p53 interaction measured after 10 mins by ELISA method; format: protein assay
Tumour suppressor p53/oncoprotein Mdm2, sequence (P04637 whole entry): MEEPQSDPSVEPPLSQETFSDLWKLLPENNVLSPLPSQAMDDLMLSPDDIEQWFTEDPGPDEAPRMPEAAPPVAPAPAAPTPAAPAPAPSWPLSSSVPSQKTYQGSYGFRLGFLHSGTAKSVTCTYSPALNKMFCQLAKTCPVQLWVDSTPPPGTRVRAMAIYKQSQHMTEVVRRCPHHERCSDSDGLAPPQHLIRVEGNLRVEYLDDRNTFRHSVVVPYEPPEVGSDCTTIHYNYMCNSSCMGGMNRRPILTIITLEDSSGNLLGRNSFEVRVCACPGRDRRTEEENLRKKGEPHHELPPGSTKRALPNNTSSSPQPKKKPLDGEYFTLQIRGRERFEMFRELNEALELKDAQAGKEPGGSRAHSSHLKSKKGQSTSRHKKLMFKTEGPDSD
Tumour suppressor p53/oncoprotein Mdm2, sequence (Q00987 whole entry): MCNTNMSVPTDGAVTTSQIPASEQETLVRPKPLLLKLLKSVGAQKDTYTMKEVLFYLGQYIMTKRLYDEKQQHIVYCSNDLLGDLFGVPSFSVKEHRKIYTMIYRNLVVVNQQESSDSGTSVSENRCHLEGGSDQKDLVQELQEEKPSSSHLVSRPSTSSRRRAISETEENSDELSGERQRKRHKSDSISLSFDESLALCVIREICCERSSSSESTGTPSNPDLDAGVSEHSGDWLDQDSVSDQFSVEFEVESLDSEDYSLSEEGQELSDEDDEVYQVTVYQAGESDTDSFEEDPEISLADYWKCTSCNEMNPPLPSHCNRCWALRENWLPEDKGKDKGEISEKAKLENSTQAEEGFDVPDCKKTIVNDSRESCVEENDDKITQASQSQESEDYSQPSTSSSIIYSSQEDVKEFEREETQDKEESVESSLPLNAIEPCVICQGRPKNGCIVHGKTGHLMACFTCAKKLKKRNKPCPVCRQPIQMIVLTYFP

Caco-2 [19] = test: Induction of apoptosis in human Caco-2 cells assessed as ratio of gene expression activity in pro apoptotic Bax to anti apoptotic Bcl-2; format: functional
MCF7 [20] = test: Induction of apoptosis in human MCF7 cells assessed as ratio of gene expression activity in pro apoptotic Bax to anti apoptotic Bcl-2; format: functional
HeLa [21] = test: Induction of apoptosis in human HeLa cells assessed as ratio of gene expression activity in pro apoptotic Bax to anti apoptotic Bcl-2; format: functional
HepG2 [22] = test: Induction of apoptosis in human HepG2 cells assessed as ratio of gene expression activity in pro apoptotic Bax to anti apoptotic Bcl-2; format: functional
Caco-2 [23] = test: cells; settings: Homo sapiens, Caco-2, 72 h, read-out: Activity
MCF7 [24] = test: cells; settings: Homo sapiens, MCF7, 72 h, read-out: Activity
Description: Induction of apoptosis in human MCF7 cells assessed as viable cells incubated at 0.027 uM for 72 hrs by annexin V-FITC based propidium iodide dual staining assay (Rvb = 99.9%)

HeLa [25] = test: cells; settings: Homo sapiens, 72 h, read-out: Activity
Description: Induction of apoptosis in human HeLa cells assessed as viable cells incubated at 0.027 uM for 72 hrs by annexin V-FITC based propidium iodide dual staining assay (Rvb = 97.23%)

HepG2 [26] = test: cells; settings: Homo sapiens, HepG2, 72 h, read-out: Activity
Description: Induction of apoptosis in human HepG2 cells assessed as viable cells incubated at 0.027 uM for 72 hrs by annexin V-FITC based propidium iodide dual staining assay (Rvb = 97.27%)

SMILES | IC50 (Caco-2 [3]) [nM] | Ratio IC50 [4] | IC50 (MCF7 [5]) [nM] | IC50 (HeLa [7]) [nM] | IC50 (HepG2 [9]) [nM] | IC50 at 72 h [1] [nM] | MNTC at 72 h [2] [nM] | selectivity ratio [6] | selectivity ratio [8] | selectivity ratio [10] | Ratio IC50 (MCF7 [11]) | Ratio IC50 (HepG2 [12]) | also measured
O=C1CN(/N=C/c2ccc([N+](=O)[O-])o2)C(=O)N1Cc1ccccc1 | 182 | 1.19 | 113 | 129 | 120 | 216 | 33 | 1.92 | 1.68 | 1.82 | 1.2 | 1.2 | –
O=C1CN(/N=C/c2ccc([N+](=O)[O-])o2)C(=O)N1Cc1ccc([N+](=O)[O-])cc1 | 103 | 1.75 | 103 | 121 | 127 | 181 | 9 | 1.77 | 1.51 | 1.42 | 1.2 | 1.2 | –
COc1cccc2c1C(=O)c1c(O)c3c(c(O)c1C2=O)C[C@@](O)(C(=O)CO)C[C@@H]3O[C@H]1C[C@H](N)[C@H](O)[C@H](C)O1 | – | – | – | – | – | – | – | – | – | – | – | – | Activity (dsDNA [15]): 65.4; Activity (dsDNA [16]): 218; Activity (dsDNA [17]): 15.2
O=C1CN(/N=C/c2ccc([N+](=O)[O-])o2)C(=O)N1Cc1cn(-c2ccccc2)nn1 | 144 | 1.53 | 128 | 84 | 104 | 220 | 36 | 1.74 | 2.61 | 2.11 | 1.2 | 1.2 | –
O=C1CN(/N=C/c2ccc([N+](=O)[O-])o2)C(=O)N1Cc1ccc(Br)cc1 | – | – | 80 | 183 | 67 | 119 | 32 | 1.5 | 0.65 | 1.78 | 1.2 | 1.2 | –
Cc1ccc(C(=O)CN2C(=O)CN(/N=C/c3ccc([N+](=O)[O-])o3)C2=O)cc1 | 140 | 1.28 | 255 | 115 | 287 | 180 | 33 | 0.706 | 1.58 | 0.628 | – | – | –

More lines, in order of falling IC50 (Caco-2 [3]), values ahead:

IC50 (Caco-2 [3]) [nM] | Ratio IC50 [4] | IC50 (MCF7 [5]) [nM] | IC50 (HeLa [7]) [nM] | IC50 (HepG2 [9]) [nM] | SMILES | IC50 at 72 h [1] [nM] | MNTC at 72 h [2] [nM] | selectivity ratio [6] | selectivity ratio [8] | selectivity ratio [10] | Ratio IC50 (MCF7 [11]) | Ratio IC50 (HepG2 [12]) | also measured
140 | 1.32 | 117 | 113 | 63 | O=C1CN(/N=C/c2ccc([N+](=O)[O-])o2)C(=O)N1Cc1cn(-c2ccc([N+](=O)[O-])cc2)nn1 | 183 | 26 | 1.56 | 1.62 | 2.92 | 1.2 | 1.2 | –
115 | 1.41 | – | 166 | – | O=C1CN(/N=C/c2ccc([N+](=O)[O-])o2)C(=O)N1 [NITROFURANTOIN] | 162 | 27 | – | 0.98 | – | – | – | IC50 [18]: 1580 nM; Ratio (Caco-2 [19]): 1.385; Ratio (MCF7 [20]): 0.958; Ratio (HeLa [21]): 1.42; Ratio (HepG2 [22]): 1.002; viability at 0.027 µM (Caco-2 [23]): 85%; viability at 0.027 µM (MCF7 [24]): 98.8%; viability at 0.027 µM (HeLa [25]): 84.8%; viability at 0.027 µM (HepG2 [26]): 98.7%
113 | 2.05 | 145 | 59 | 283 | Cc1ccc(-n2cc(CN3C(=O)CN(/N=C/c4ccc([N+](=O)[O-])o4)C3=O)nn2)cc1 | 232 | 27 | 1.6 | 3.92 | 0.824 | 1.2 | – | –
105 | 1.37 | 198 | 87 | 149 | COc1ccc(C(=O)CN2C(=O)CN(/N=C/c3ccc([N+](=O)[O-])o3)C2=O)cc1 | 140 | 26 | 0.706 | 1.61 | 0.948 | 1.2 | 1.2 | –
87 | 1.01 | 120 | 108 | 71 | O=C1CN(/N=C/c2ccc([N+](=O)[O-])o2)C(=O)N1Cc1cn(-c2ccc(S(=O)(=O)Nc3nccs3)cc2)nn1 | 87.9 | 32 | 0.727 | 0.813 | 1.23 | 1.2 | 1.2 | –
78 | 3.05 | 105 | 97 | 289 | O=C(CN1C(=O)CN(/N=C/c2ccc([N+](=O)[O-])o2)C1=O)c1ccc(Br)cc1 | 240 | 66 | 2.31 | 2.47 | 0.83 | 1.2 | – | –
77 | 1.95 | 85 | 78 | 400 | O=C1CN(/N=C/c2ccc([N+](=O)[O-])o2)C(=O)N1Cc1cn(-c2ccc(Cl)cc2)nn1 | 150 | 29 | 1.77 | 1.92 | 0.376 | 1.2 | – | Activity (Caco-2 [13]): Active; Activity (MCF7 [14]): Active
73 | 3.08 | 76 | – | 277 | O=C(CN1C(=O)CN(/N=C/c2ccc([N+](=O)[O-])o2)C1=O)c1ccccc1 | 226 | 19 | 2.98 | – | 0.824 | 1.2 | – | –
